Our source for the IC50 values is ChEMBL document CHEMBL1166012, “New aryldithiolethione derivatives as potent histone deacetylase inhibitors” (Bioorg Med Chem, 2010).

Assay [1] deals with A549. Put plainly: Antiproliferative activity against human A549 cells after 48 hrs. Type of assay: functional, cell-based. The note with it: A549, 48 h.
Assay [2] concerns the target Histone deacetylase. Put plainly: Inhibition of HDAC in human HeLa cells extracts after 60 mins by fluorescence assay. Type of assay: cell-based.

Bounds are passed on as bounds.

Take `O=C(CCCCCCC(=O)Nc1ccccc1)NOC(=O)c1ccc(-c2cssc2=S)cc1`: the IC50 in assay [1] came out at 1.68 µM; in assay [2] it was 1.19 µM.
For `Nc1ccccc1NC(=O)CCCCCCOc1ccc(-c2cc(=S)ss2)cc1`, the concentration for half-maximal inhibition (IC50) was 31.7 µM in assay [1] and 32 µM in assay [2].
Consider `O=C(O)c1ccc(-c2cssc2=S)cc1`, for which the half-inhibitory concentration (IC50) is 103 µM in assay [1] and 100 µM in assay [2].
For the molecule `O=C(CCCCOc1ccc(-c2cc(=S)ss2)cc1)Nc1ccccc1`, the IC50 in assay [1] was greater than 1000 µM; in assay [2] it was 50 µM.
In the same order, the values of `O=C(CCCCCCC(=O)Oc1ccc(-c2cc(=S)ss2)cc1)NO` are 56 µM and 10 µM.
For the molecule `O=C(CCCCCCC(=O)Nc1ccccc1)NOC(=O)c1csc(=S)s1`, the 50% inhibitory concentration (IC50) in assay [1] was 3.4 µM; in assay [2], 0.25 µM.
As to `O=C(CCCCOc1ccc(-c2cc(=S)ss2)cc1)NO`, the 50% inhibitory concentration (IC50) is 5.4 µM in assay [1] and 0.08 µM in assay [2].
In the case of `O=C(CCCCCCOc1ccc(-c2cc(=S)ss2)cc1)NO`, the concentration for half-maximal inhibition (IC50) in assay [1] was found to be 6.1 µM; in assay [2], 0.01 µM.
In the same order, the values of `O=C(CCCCCCOc1ccc(-c2cc(=S)ss2)cc1)Nc1ccccc1` are 60.2 µM and 918.7 µM.
Consider `O=C(O)c1csc(=S)s1` [ACS 5], for which the half-inhibitory concentration (IC50) was greater than 1000 µM in assay [1] and 46.4 µM in assay [2].
In the same order, the values of `COc1cc(-c2cc(=S)ss2)ccc1OCC(=O)O` are 880 µM and 82.85 µM.
In the same order, the values of `O=C(CCCCCCC(=O)Oc1ccc(-c2cc(=S)ss2)cc1)Nc1ccccc1` are greater than 1000 µM and 100 µM.

Usually IC50 stands for the midpoint of a concentration-inhibition curve. Read a high IC50 as weaker potency.
